Assay results: US20180117036A1, “ORAL PHARMACEUTICAL COMPOSITION FOR INCREASING HYPOXIA TOLERANCE” (CHANGZHOU HI-TECH DISTRICT MULTIPLE DIMENSION INDU, priority 2013, published 2018)
Structures can show the parent of a compound that is named as a salt.

Test system: hypoxic mice
Test: Survival time of mice under normal pressure in hypoxic condition (sealed wide mouth bottle with soda lime)
Type: in vivo
Conditions: intragastric; for Extended Survival Time: 7 days, vs control group; for Survival Time: once a day for 7 days, n = 10, x ± S
Protocol: Observation of influence of oral administration of different dosage combination of L-carnitine+trimetazidine to hypoxic mice in normal pressure trimetazidine hydrochloride: 0.15, 0.75, 1.5, 3, 6 and 9 mg/kg, equivalent to human daily dosage of 1, 5, 10, 20, 40 and 60 mg;
L-carnitine: 600 mg/kg, equivalent to human daily dosage of 4 g; 70 male mice are selected, each of a weight of 20±2 g. The mice are divided into […] randomly based on weight, 10 for each group, and are given oral administration at a dosage of 20 ml/kg, while the control group is given isovolumetric normal saline, both once a day for consecutive 7 days. In one hour after the final administration, each group of mice are placed in wide mouth bottles of a volume of 160 ml, into which 5 g of soda lime has been pre-added. One bottle contains one mouse and its cap is sealed with Vaseline. Taking death of mice as index, putting down the survival time of mice and taking a 20% or more extension of survival time as significant effect. Please refer to table 1 for the results.
Comparison of L-carnitine 600 mg/kg+trimetazidine hydrochloride 6 mg/kg and separate intragastric administration on mice in hypoxia under atmospheric pressure 40 male mice are selected, each of a weight of 20±2 g. The mice are divided into 4 groups randomly based on weight, 10 for each group, and are given intragastric administration at a dosage of 20 ml/kg, while the control group is given isovolumetric normal saline, both once a day for consecutive 7 days. In one hour after the final administration, each group of mice are placed in wide mouth bottles of a volume of 160 ml, into which 5 g of soda lime has been pre-added. One bottle contains one mouse and its cap is sealed with Vaseline. Taking death of mice as index and putting down the survival time of mice. Please refer to table 2 for the results.

[1] = trimetazidine hydrochloride 6 mg/kg alone

Compound | Extended Survival Time [1] | Survival Time [1] | Extended Survival Time (L-carnitine 600 mg/kg alone) | Survival Time (L-carnitine 600 mg/kg alone)
COc1ccc(CN2CCNCC2)c(OC)c1OC [trimetazidine hydrochloride] | 20.9% | 26.0 ± 5.2 min |  | 
C[N+](C)(C)C[C@H](O)CC(=O)[O-] [L-carnitine] |  |  | 33.0% | 28.6 ± 4.8 min
